Laboratory results reported in patent US6660501B2, “Production of proteins by cell culture” (Lonza Group, AG, priority 1986, dated 2003).

System: NT1/19 cells
Assay: Effect of varying alkanoates on antibody production from hybridoma cells
Assay type: cell-based
Conditions: for AVERAGE DATA FROM EXP. #1 & #2: average of relative productivity, control 100.00; for PRODUCTIVITY EXP. #1: control 3.30; for PRODUCTIVITY EXP #2: control 2.39
Method: The IgM secreting mouse hybridoma cell line NB1/19 was grown in suspension culture in Dulbeccos Modified Eagles Minimum (DMEM) serum-free medium containing albumin, insulin, transferrin, gentamycin and other additives as required to cultivate cells in suspension culture. The NB1/19 cell line produces a mouse monoclonal antibody having specificity for an antigenic determinant of human B-type blood cells. The preparation of this call line is described in detail in the specification of British Patent GB 2097425B. It will be appreciated, however, that other hybridoma cell lines may be used in place of this particular cell line as appropriate in this and other examples.
The cells were grown to a viable cell density of 1.0-1.5×10^6 cells/ml. Viable cell density was determined by counting the number of cells which exclude trypan blue, a staining agent. A sample of the suspension culture was diluted in a serum-free medium to a density of about 1.3×10^5 cells/ml. Aliquots of 50 ml in volume were dispensed into shake flasks and sodium butyrate added at concentrations of 0.1 mM, 0.3 mM, 0.5 mM and 1.0 mM.
The shake flasks were gassed with 5% CO2-95% air, and sealed and incubated with shaking at 37° C. for up to 207 hours. (Table 1). Samples ([…]) were removed from the culture by pipette. 100 μl was used to determine viable cell count and the reminder centrifuged at 300×g for five minutes. Supernatants were stored at −20° C. prior to antibody determination by enzyme linked immunosorbent assay (ELISA).
NT1/19 cells were cultured as in Example 1. Varying straight chain sodium alkanoate salts (propionate, butyrate, bentanoate or hexanoate) were added to the inoculum at the concentrations indicated in Table 5.

SMILES	RELATIVE PRODUCTIVITY EXP. #1 (0.50 mM alkanoate)	AVERAGE DATA FROM EXP. #1 & #2 (0.50 mM alkanoate)	PRODUCTIVITY EXP. #1 (0.50 mM alkanoate)	RELATIVE PRODUCTIVITY EXP. #1 (1.00 mM alkanoate)	RELATIVE PRODUCTIVITY EXP. #2 (1.00 mM alkanoate)	AVERAGE DATA FROM EXP. #1 & #2 (1.00 mM alkanoate)	PRODUCTIVITY EXP #2 (1.00 mM alkanoate)	PRODUCTIVITY EXP. #1 (1.00 mM alkanoate)
CCCCC(=O)[O-].[Na+] [PENANOATE, bentanoate]	163.6 % of control	163.64	5.40 ug antibody per 10^5 cells	206.1 % of control	230.1 % of control	218.09	5.50 ug antibody per 10^5 cells	6.80 ug antibody per 10^5 cells
CCC(=O)O [PROPIONATE, propionate]	–	172.73	5.70 ug antibody per 10^5 cells	–	–	210.07	4.95 ug antibody per 10^5 cells	7.03 ug antibody per 10^5 cells
